{"source": "patent US8952192B2", "about": "“Phosphorylated and branched dihydroxy-pentane-dione (DPD) analogs as quorum sensing inhibitors in bacteria” (University of Maryland, College Park, priority 2011, dated 2015)", "key": {"[1]": {"tested_on": "lsr expression in E. coli (lsr-lacZ reporter strains)", "experiment": "QS response (lsr expression): AI-2 dependent β-galactosidase production, Miller assay", "type": "cell-based, Escherichia coli", "settings": "E. coli ZK126 pLW11 LW8 (luxS+, lsrR−), 20 μM analog"}, "P. aeruginosa": {"tested_on": "P. aeruginosa", "experiment": "DPD analogs and representative bacterial species affected (Table 1)", "type": "cell-based", "design": "key: x: DPD Analogs and representative bacterial species affected"}, "[2]": {"tested_on": "pre-formed P. aeruginosa biofilms (PAO1)", "experiment": "Effects on pre-formed P. aeruginosa biofilms (microfluidic flow cell, COMSTAT, optical density)", "type": "cell-based", "method": "(§1) The E. coli biofilms were formed using the strain K-12 MG1655 ATCC(47076). P. aeruginosa biofilms were formed using wild type strain PAO1. For both strains, overnight cultures were diluted to an OD600 of 0.25, introduced into the microfluidic channel, and incubated with no flow at 37° C. for 2 h. LB (Luria Bertani) growth medium was then continuously flowed into the device at a rate of 10 μL/hr. As needed, this medium was supplemented with various concentrations of analog or antibiotic at specified times. In studies of biofilm inhibition, after 2 hours of cell incubation, the analog diluted in LB medium is flown into the microfluidic channel for 48 hours at 10 μL/hr. In studies of effects on pre-formed biofilms, LB is introduced over the cells at 10 μL/hr for a period of 36 to 48 hours to yield stable biofilms. Then, the analog or analog-antibiotic combination was introduced for an additional 36 to 48 hours.\n(§2) Biofilms were stained in situ for microscopy. They were first treated with a Live/Dead bacterial labeling kit (Invitrogen #L7012) in which two labeling components were mixed in a 1:1 ratio to a final volume of 10 μL. The dye was introduced into the channel at 10 μL/hr, the same flow rate as during biofilm growth. This treatment was then followed by 10 μL/hr of a 100 μg/mL calcofluor (Fluorescence Brightener 28, Sigma #F3543) solution for labeling polysaccharides contained in the biofilm matrix. The dyes are fixed by flowing in 3% paraformaldehyde at the same flow rate.\n(§3) Labeled samples are imaged using a confocal microscope (Zeiss LSM710). For unpatterned coverslips, Z-stacks were obtained at 7 points in each microfluidic channel, each stack was comprised of 150 slices. For patterned coverslips used while measuring the optical density of the biofilms, two stacks were obtained in each channel (i.e. one at each pinhole). The image stacks were analyzed using COMSTAT, which provides morphological characteristics. Average biofilm thickness and biomass were averaged over the image stacks obtained at each of these 7 data points in the microfluidic channel. Additionally, surface reconstructions of the biofilms were created using Imaris (Bitplane) to aid in visualization of the resulting structures.\nThe data corresponding to the change in optical density of the biofilms were obtained from the photodiodes using the standard methodologies. Data for each channel (the average of the response of the two photodiodes) was normalized with respect to the optical density at 48 hours; this method reflects that as of 48 hours, the biofilms have been grown under identical conditions although their optical density values may not be identical. Additionally, since the optical density data itself fluctuates as the biofilm grows, the data for each curve was fitted using a Churchill model (Churchill et al, 1972), represented by log N=[f1^−1+f2^−1]^−1 (1)"}, "S. typhimurium": {"tested_on": "S. typhimurium", "experiment": "DPD analogs and representative bacterial species affected (Table 1)", "type": "cell-based", "design": "key: x: DPD Analogs and representative bacterial species affected"}, "V. harveyi": {"tested_on": "V. harveyi", "experiment": "DPD analogs and representative bacterial species affected (Table 1)", "type": "cell-based", "design": "key: x: DPD Analogs and representative bacterial species affected"}, "E. coli W3110 pCT6": {"tested_on": "E. coli W3110 pCT6", "experiment": "Trispecies synthetic ecosystem: AI-2 stimulated GFP expression, flow cytometry", "type": "cell-based", "settings": "trispecies co-culture, flow cytometry after 8 hours; 60.7% without analog", "source_text": "(§4) To investigate the effect of the DPD analogs in a mixed bacterial environment, a synthetic ecosystem composed of three different bacterial populations was assembled. Specifically, S. typhimurium MET708, V. harveyi BB170 and E. coli W3110 (pCT6), each luxS^+ (Table 2), and each producing their native AI-2 were co-cultured in the same tubes. By design, each species was selected so that a different reporter probe would indicate the specific bacterium's QS response: S. typhimurium (MET708) expresses β-galactosidase; V. harveyi (BB170) elicits bioluminescience; and E. coli (W331) are engineered to synthesize GFP. In this way, their responses can be differentiated and quantified in response to AI-2.\n(§5) The S. typhimurium MET708, V. harveyi BB170 and E. coli W3110 pCT6 were each cultured separately overnight in LM medium supplemented with the appropriate antibiotic. […] The V. harveyi luminescence response was measured after 2.5 hours. The S. typhimurium lacZ (β-galactosidase) activity was measured after 4 hours. The E. coli response was determined after 8 hours, by fixing the cells with 1:1 cold 4% paraformaldehyde and using flow cytometric analysis. Samples were analyzed by flow cytometery (FACS Canto II, BD 394 Biosciences), with 20,000 gated events analyzed per sample."}, "V. harveyi BB170": {"tested_on": "V. harveyi BB170", "experiment": "QS response (bioluminescence), trispecies synthetic ecosystem", "type": "cell-based", "settings": "40 μM, LM media", "method": "The effect of isobutyl-DPD or isopropyl-DPD on QS associated bioluminescence production by V. harveyi was recorded by measuring the light production from reporter strain, V. harveyi BB170. The analogs were added at concentrations of (20 μM or 40 μM) to V. harveyi BB170 which was assayed as previously described.\nThe S. typhimurium MET708, V. harveyi BB170 and E. coli W3110 pCT6 were each cultured separately overnight in LM medium supplemented with the appropriate antibiotic. V. harveyi BB170, S. typhimurium MET708 and E. coli MDAI-2 were diluted (1:4:8), respectively, into a single 1 ml volume of fresh LM medium without antibiotics. The co-culture was supplemented with either 20 μM or 40 μM analog initially and again after 3 and 5 hours of growth. The V. harveyi luminescence response was measured after 2.5 hours. The S. typhimurium lacZ (β-galactosidase) activity was measured after 4 hours. The E. coli response was determined after 8 hours, by fixing the cells with 1:1 cold 4% paraformaldehyde and using flow cytometric analysis. Samples were analyzed by flow cytometery (FACS Canto II, BD 394 Biosciences), with 20,000 gated events analyzed per sample."}, "E. coli": {"tested_on": "E. coli", "experiment": "DPD analogs and representative bacterial species affected (Table 1)", "type": "cell-based", "design": "key: x: DPD Analogs and representative bacterial species affected"}, "[3]": {"tested_on": "E. coli biofilms (K-12 MG1655)", "experiment": "Biofilm maturation in the presence of AI-2 analog (microfluidic flow cell, confocal microscopy, COMSTAT)", "type": "cell-based", "method": "as §1, §2, §3"}, "S. typhimurium MET708": {"tested_on": "S. typhimurium MET708", "experiment": "Trispecies synthetic ecosystem (S. typhimurium, V. harveyi, E. coli): β-galactosidase activity", "type": "cell-based", "settings": "trispecies co-culture, lacZ activity after 4 hours", "source_text": "as §4, §5"}}, "data": [{"smiles": "O=C(C(=O)C(O)CO)c1ccccc1", "note": "(centres unmarked) [Phenyl-DPD, Phenyl DPD]", "values": [{"measurement": "difference in lsr expression versus control in lsrR null mutant", "setting": "[1]", "result": "exception"}, {"measurement": "bacterial species affected: P. aeruginosa", "setting": "P. aeruginosa", "result": "x"}, {"measurement": "biofilm reduction", "setting": "[2]; 100 uM phenyl DPD alone", "result": "about 40%"}, {"measurement": "biofilm reduction", "setting": "[2]; gentamicin and 100 uM phenyl DPD combined", "result": "~100", "unit": "%"}, {"measurement": "biofilm biomass", "setting": "[2]; phenyl-DPD 100 μM combined with gentamicin 5 μg/ml, untreated 15 μm^3/μm^2", "result": "< 2", "unit": "μm^3/μm^2"}, {"measurement": "biofilm thickness", "setting": "[2]; phenyl-DPD 100 μM combined with gentamicin 5 μg/ml, untreated 26 μm", "result": 2, "unit": "μm"}, {"measurement": "course of biofilm optical density after 48 h, in words", "setting": "[2]; phenyl-DPD combined with gentamicin, continuous optical density measurement", "result": "reversed biofilm growth"}]}, {"smiles": "CC(C)CC(=O)C(=O)[C@@H](O)CO", "note": "[Isobutyl-DPD, isobutyl-DPD]", "values": [{"measurement": "bacterial species affected: S. typhimurium", "setting": "S. typhimurium", "result": "x"}, {"measurement": "bacterial species affected: V. harveyi", "setting": "V. harveyi", "result": "x"}, {"measurement": "QS positive (green, GFP) cells of the E. coli population after analog addition", "setting": "E. coli W3110 pCT6", "result": 0.7, "unit": "%"}, {"measurement": "decrease of bioluminescence in V. harveyi", "setting": "V. harveyi BB170", "result": 33, "unit": "%"}, {"measurement": "bacterial species affected: E. coli", "setting": "E. coli", "result": "x"}, {"measurement": "average biofilm biomass", "setting": "[3]; 40 μM, 48 h, LB only 14 μm^3/μm^2", "result": 3.5, "unit": "μm^3/μm^2"}, {"measurement": "average biofilm thickness", "setting": "[3]; 40 μM, 48 h, LB only 22 μm", "result": 7, "unit": "μm"}, {"measurement": "inhibition of biofilm growth", "setting": "[3]; 40 μM, 48 h continuous exposure in LB", "result": "~70", "unit": "%"}, {"measurement": "effect on biofilm thickness of increasing concentration, in words", "setting": "[3]; 100 μM versus 40 μM", "result": "no further inhibitory effect"}, {"measurement": "decrease of S. typhimurium β-galactosidase activity", "setting": "S. typhimurium MET708", "result": 4, "unit": "fold"}]}]}
